This note sets out measurements from PubChem BioAssay (NCI).

Common to all, as to assay: DTP human tumour cell line panel, 48 h
The subject of test [1] is RPMI-8226 leukemia.
For test [2], the system named is MALME-3M melanoma.
Test [3] relates to HCT-15 colon.
Test [4] deals with SF-295 CNS.
For test [5], the system named is OVCAR-8 ovarian.
Test [6] concerns IGROV1 ovarian.
Test [7] deals with RXF 393 renal.
Test [8] relates to COLO 205 colon.
The subject of test [9] is LOX IMVI melanoma.

Where “and” joins values, the source holds several entries; their conditions need not be identical. Equal entries are not always repeated.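 Step 1: Grow cells in 96-well plates. Step 2: Expose to compound for 48 hours at 5 concentrations. Step 3: Interpolate endpoints linearly; if unreached, use highest concentration. Abbreviation: GI50, concentration required for 50% inhibition of growth. TGI: total growth inhibition.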

For orientation: TGI means the concentration giving total growth inhibition. A lower TGI goes with greater sensitivity of the cells. Take `CN=S(=O)(C[C@]1(O)CC2OC1C1OC(C)(C)OC21)c1ccccc1` (stereo not given in full): the TGI in test [1], in test [2], in test [3], in test [4], in test [5] and in test [6] was > 100 µM each time. Besides, the TGI in test [7] and in test [8] was > 100 µM in each case.

As a reminder, the GI50 is the concentration that inhibits growth by half. Take `CCC[CH2][Sn]([CH2]CCC)([S]C1=NCCS1)[S]C1=NCCS1`: the GI50 in test [1] was 0.101 µM; in test [2], 0.157 µM; in test [3], 0.338 µM; in [4], 0.73 µM; in test [5], 0.397 µM; in test [6], 1.3 µM. In addition, the values for the GI50 in [7], in [9] and in [8] were 0.0846 µM, 0.186 µM and 0.331 µM, respectively. Besides, the TGI is 0.461 µM in test [1]; 0.555 µM in [2]; 1.74 µM in test [3]; 2.02 µM in [4]; 1.6 µM in test [5]; 2.74 µM in test [6]. In addition, the TGI in test [7] was determined as 0.301 µM; in test [9], 0.555 µM; in test [8], 1.5 µM.

In the case of `CCC(=C(c1ccc(OCc2ccccc2)cc1)c1ccc(OCc2ccccc2)cc1)c1ccc(OC)cc1`, the concentration for total growth inhibition (TGI) in test [1], in test [2], in test [3], in [4], in test [5] and in test [6] was > 100 µM throughout. The concentration for total growth inhibition (TGI) in [7], in test [9] and in test [8] was > 100 µM each time.

As for `C=CCN(N=O)C(=O)N(CCC)CCCCC(NC(C)=O)C(=O)NCc1ccccc1` (stereo not given), the TGI in test [1], in [2], in test [3], in [4], in test [5] and in test [6] was > 100 µM each time. The TGI in [7], in test [9] and in test [8] was > 100 µM each time.

As for `O=C(CC1(O)C(=O)Nc2c(Cl)cc(Cl)cc21)c1ccc2ccccc2c1` (stereo not given), the TGI turned out to be 29.8 µM in [1]; 19.7 µM in [2]; 14.2 µM in test [3]; 21.3 µM in test [4]; 26 µM in test [5]; 23.1 µM in [6]. For the same molecule, the TGI worked out at 20.9 µM in test [7], 24.3 µM in test [9] and 21.6 µM in test [8].

`O=C(CC(=O)C(F)(F)F)c1csc2ccccc12`: the TGI in test [1] was 91.6 µM; in [2], 67.6 µM; in test [3], > 100 µM; in test [4], 37 µM; in test [5], 60.2 µM; in test [6], > 100 µM. Moreover, the TGI in [9] and in test [8] was > 100 µM in each case.

`COc1ccccc1NC(=O)C1=C(C)NC(C)=C(C(=O)Nc2ccccc2OC)C1c1ccccc1OC`: the TGI in [1], in test [2], in test [3], in [4], in test [5] and in test [6] was > 100 µM throughout. The TGI in test [9] and in test [8] was > 100 µM throughout.

For the molecule `CCOC(=O)C1=C(C)N(NC(=O)c2ccccc2)C2(O)CCCC12C(=O)OCC` (stereo not given), the TGI in test [1], in [2], in test [3], in test [4], in [5] and in test [6] was > 100 µM throughout. Further, the TGI in [7] and in test [9] was > 100 µM in each case.

As for `Nc1nc(N)c(-c2ccc(Cl)cc2)c(CCC(=O)Nc2cccc(C(F)(F)F)c2)n1`, the TGI in test [2], in [3], in test [4], in [5], in [6] and in test [7] was > 100 µM each time. In addition, the TGI in test [9] and in test [8] was > 100 µM each time.

Consider `CC1C2=CC=C(O2)C(C)(C)C2=CC=C(O2)C(C)(C)C2=CC=C(O2)C(C)(C)C2=CC=C1O2`, for which the TGI in [2], in [3], in [4], in [5], in test [6] and in test [7] was > 100 µM throughout. The concentration for total growth inhibition (TGI) in test [9] and in [8] was > 100 µM each time.

For the molecule `Nc1ccn([C@@H]2C=C(CO)[C@@H](O)[C@H]2O)c(=O)n1`, the GI50 in [1] was 0.0128 µM and 0.0635 µM and 0.126 µM; in test [8], 0.0295 µM. Also, the TGI is 483 µM and > 625 µM in test [3]; 316 µM and > 625 µM in test [4]; 67 µM and > 625 µM in test [5]; 222 µM and > 625 µM in test [6]; 201 µM and 44.8 µM in test [7].

For the molecule `Cc1ccc2[nH]c(=O)c(C(C#N)c3ccccc3)nc2c1` (stereo not given), the TGI in test [1] is > 100 µM; in [2], > 100 µM; in [3], > 100 µM; in [4] it was > 100 µM; in test [6], > 100 µM; in test [7] it was 78.8 µM. For the same molecule, the TGI in test [9] is > 100 µM; in test [8], 54.8 µM.

Regarding `C[C@]12CCC(=O)C=C1CC[C@@H]1[C@@H]2CC[C@]2(C)C(=O)/C(=C/c3cccc(OCCN4CCOCC4)c3)C[C@@H]12`, the GI50 in [2] was 14.7 µM; in test [3], 5.29 µM; in [4] it was 3.74 µM; in [5] it was 6.28 µM; in test [6], 23.5 µM; in test [7] it was 5.62 µM. Moreover, the GI50 was 9.44 µM in test [9] and 5.21 µM in test [8]. For the same molecule, the TGI was 36 µM in [2]; 42.1 µM in test [3]; 16.6 µM in [4]; > 100 µM in test [5]; 95.9 µM in test [6]; 20.9 µM in [7]. For the same molecule, the TGI in [9] was found to be 26.6 µM; in [8], 25.5 µM.

For `CC1C(=O)N(C)C2(CO)C(=O)O[C@H](C)C12O` (stereo not given in full), the TGI in [1], in test [2], in test [3], in test [4], in [5] and in [6] was > 100 µM in each case. Also, the TGI in test [7] and in test [8] was > 100 µM in each case.

Regarding `O=C(O)/C(Cl)=C(\Cl)C(=O)Nc1ccccc1`, the TGI in test [1], in test [2], in test [3], in test [4], in test [6] and in [7] was > 100 µM each time. In addition, the TGI in test [9] and in test [8] was > 100 µM throughout.

As to `O=C(C=Nc1ccccc1C(=O)[O-])c1cccs1.O=C(C=Nc1ccccc1C(=O)[O-])c1cccs1.[Cu+2]`, the TGI in test [2], in test [3], in test [4], in test [5], in test [6] and in test [9] was > 100 µM throughout. Further, the TGI in test [8] was > 100 µM.

For `COC(=O)C(=O)C(C(=O)C(=O)Nc1cc([N+](=O)[O-])ccc1[N+](=O)[O-])c1nc2ccc(C(=O)c3ccccc3)cc2[nH]c1=O` (stereo not given), the TGI is 62.4 µM in test [1]; > 100 µM in test [2]; > 100 µM in test [3]; > 100 µM in test [4]; > 100 µM in [5]; > 100 µM in test [6]. In addition, the TGI in test [9] and in test [8] was > 100 µM throughout.

Turning to `COC1CC2CCC(C)[C@](O)(O2)C(=O)C(=O)N2CCCCC2C(=O)OC(C(C)CC2CCC(O)C(OC)C2)CC(=O)C(C)C=C(C)C(OC(=O)CN(C)C)C(OC)C(=O)C(C)CC(C)/C=C/C=C/C=C\1C` (stereo not given in full), the TGI in [2] worked out at 20.4 µM; in test [3] it was 22.6 µM; in [4] it was 20.7 µM; in test [5], 62.5 µM; in [6] it was 9.88 µM; in [7] it was 15.5 µM. Also, the TGI in test [9] stood at 16.7 µM; in test [8], 25.2 µM.

As for `O=C1c2ccccc2C(=O)c2nc(-c3ccccc3)c(-c3ccccc3)nc21`, the TGI in [1], in test [2], in [3], in test [4], in test [5] and in test [7] was > 100 µM each time. Moreover, the figures for the TGI in test [9] and in test [8] were > 56.1 µM and > 100 µM, respectively.

In the case of `CC12CC3CC(C)(C1)CC(N=[N+]=[N-])(C3)C2`, the TGI in test [1], in test [2], in test [4], in test [5], in [6] and in [9] was > 100 µM throughout. Moreover, in test [8], the TGI is > 100 µM.

For the molecule `COc1ccc2c(c1)[n+]([O-])c(-c1nc3ccccc3s1)c(N)[n+]2[O-]`, the TGI in [1], in test [2], in [3], in test [4], in test [5] and in test [6] was > 100 µM in each case. In addition, the TGI in test [8] is > 100 µM.
